Reference: US7632814B2, “HYD1 peptides as anti-cancer agents” (University of South Florida, priority 2006, dated 2009)
Where no end group is shown, it is not given here. [ ]: non-standard residue; d: D form.

Tests used:
[1] = target: T1, β1 integrin (Homo sapiens, UniProt P05556); experiment: Binding of peptide to the cell surface
T1 construct: endogenous in cells
Source text: Another aspect of the invention concerns a method of identifying modulators of peptide binding (a screen for molecules that displace peptide binding). Agents that are identified as being capable of competing with the HYD1 peptides of the invention for binding to β1 integrin may have utility as cytotoxic agents for research or therapy (e.g., for cancer treatment). The method comprising providing a candidate agent (such as a chemical compound, antibody, nucleic acid, or peptide); and determining whether the agent inhibits (e.g., disrupts, prevents, or interferes with), the ability of a HYD1 peptide of the invention (HYD1 or a fragment or variant thereof) to bind to β1 integrin on a cell surface (e.g., cancer cell surface) and/or inhibit β1 integrin mediated adhesion, in vitro or in vivo (e.g., in an animal model). Preferably, the cell is a cancer cell such as a myeloma cell or a cell of other cancer types (see, for example Table 1). Preferably, the peptide is labeled with a detectable moiety (e.g., a fluorescent tag, such as […]) to facilitate the determining step. Examples of controls that may be utilized in carrying out the screening method include, but are not limited to, unlabeled HYD1 peptides (HYD1, or a fragment or variant thereof); scrambled peptides (such as HYD1S); β1 integrin blocking antibody; and non-specific surface antigen binding antibody (such as CD138 for myeloma cells). Advantageously, using the screening assay, labeled HYD1 or fragments or variants thereof, can be used to screen candidates such as small molecules, on natural product libraries, in a rapid, high-throughput fashion. […] Fluorescence polarization (FP) analysis can be used to screen small molecule or natural product libraries for discovery of novel compounds that mimic the specific binding and potentially the biological activity of HYD1. The FP assay is based on the extent of depolarization of the free versus bond peptide, which can be accurately measured on commercially available FP plate readers. […] In summary, a high throughput screen (HTS) can be used to bind small molecules prior to the addition of an HYD1 probe and molecules of interest can be identified by displacement of bond peptide, with a corresponding increase in unbound peptide by FP analysis. An analogous high-throughput binding assay based on fluorescence polarization, which allows screening for small molecules that bind to the STAT3 SH2 domain, is described in Schust J. and Berg T., Anal Biochem., 2004 Jul. 1; 330(1):114-8. […]

[2] = system: H929 cells; experiment: Detection of apoptosis, annexin V staining and FACS, suspension culture; assay type: cell-based
Protocol: FIG. 17 is a graph showing that HYD1 induces apoptosis as a single agent in 8226 and H929 cells cultured in suspension. 8226 and H929 cells were either treated with varying concentrations of HYD1 or vehicle control (equal volume sterile double distilled water) for 24 hours and apoptotic cells were detected by FACS analysis of annexin V positive cells. HYD1 specific apoptosis equals cell death due to peptide minus any apoptosis detected in control cells.
200 μM ZVAD-FMK was added to H929 cells for 30 minutes prior to the addition of either 75 μg/ml HYD1S or 15 μM Melphalan. Apoptosis was measured 24 hours after drug treatment by annexin/PI staining and apoptotic cells were detected by FACS analysis. Three independent experiments were performed and shown is a representative experiment.
Detection of Apoptosis. […] Blood, 1999; 93:1658-1667). The assay was performed in triplicate and 3 independent experiments were performed. Caspase 3 and 8 activity was measured at 6 and 24 hrs post peptide treatment per manufactures' instructions (BD Biosciences, San Jose, Calif.). The caspase assays were performed in triplicate and repeated twice.
Myeloma cells were plated at a density of 400,000 cells per ml in a 24 well plate. Cells were treated with the indicated dose of the peptide for 24 hours. Following 24 hrs of peptide exposure, apoptotic cells were detected using Annexin V staining and FACS analysis. Ten thousand events were analyzed by flow cytometry (Becton Dickinson, San Jose, Calif.). Experiments were performed in triplicate and repeated twice. Shown is a representative figure.

[3] = system: H929 cells; experiment: HS-5 co-culture (SF+A) model of drug resistance, melphalan apoptosis; assay type: cell-based
Protocol: (§1) Co-culture model. HS-5/GFP cells were plated at a density of 500,000 cells per ml and incubated overnight. Myeloma cells were incubated with vehicle control (water), 50 μg/ml HYD1 or 50 μg/ml HYD1S 30 minutes prior to the addition of myeloma cells (400,000 cell/ml) to either control plates or plates containing HS-5 cells. Myeloma cells were incubated with HS-5 cells for three hours prior to the addition of melphalan. Apoptotic cells were measured in GFP negative myeloma cells, by annexin PE staining and FACS analysis (n=9). ANOVO was performed to determine significance between conditions.
(§2) Briefly, 8226 myeloma cells were pre-incubated with varying concentrations of either HYD1 or the scrambled HYD1S peptide for 30 minutes prior to allowing cells to attach to FN for two hours. Following two hours of cell adhesion, the amount of cells adherent to FN was measured. The next objective was to determine whether treatment of tumor cells with HYD1 results in potentiation of melphalan induced cell death in the BMS co-culture model (SF+A). […] For these studies, the HYD1 and HYD1S were pre-incubated with the […] for 30 minutes, and then cells and culture media containing the peptide were placed into the S-5 culture dish. Myeloma cells were co-cultured for an additional 3 hours with HS-5 cells before the addition of melphalan. Twenty-four hours after drug treatment, apoptosis was measured by Annexin V-PE positive events by FACS analysis. The HS-5 cells constitutively express GFP and thus it is possible to gate GFP negative cells only (myeloma cells) for the apoptotic analysis.

[4] = system: 8226 cells; experiment: as above; assay type: cell-based
Protocol: as §1, §2

T1 sequence (P05556 21-798): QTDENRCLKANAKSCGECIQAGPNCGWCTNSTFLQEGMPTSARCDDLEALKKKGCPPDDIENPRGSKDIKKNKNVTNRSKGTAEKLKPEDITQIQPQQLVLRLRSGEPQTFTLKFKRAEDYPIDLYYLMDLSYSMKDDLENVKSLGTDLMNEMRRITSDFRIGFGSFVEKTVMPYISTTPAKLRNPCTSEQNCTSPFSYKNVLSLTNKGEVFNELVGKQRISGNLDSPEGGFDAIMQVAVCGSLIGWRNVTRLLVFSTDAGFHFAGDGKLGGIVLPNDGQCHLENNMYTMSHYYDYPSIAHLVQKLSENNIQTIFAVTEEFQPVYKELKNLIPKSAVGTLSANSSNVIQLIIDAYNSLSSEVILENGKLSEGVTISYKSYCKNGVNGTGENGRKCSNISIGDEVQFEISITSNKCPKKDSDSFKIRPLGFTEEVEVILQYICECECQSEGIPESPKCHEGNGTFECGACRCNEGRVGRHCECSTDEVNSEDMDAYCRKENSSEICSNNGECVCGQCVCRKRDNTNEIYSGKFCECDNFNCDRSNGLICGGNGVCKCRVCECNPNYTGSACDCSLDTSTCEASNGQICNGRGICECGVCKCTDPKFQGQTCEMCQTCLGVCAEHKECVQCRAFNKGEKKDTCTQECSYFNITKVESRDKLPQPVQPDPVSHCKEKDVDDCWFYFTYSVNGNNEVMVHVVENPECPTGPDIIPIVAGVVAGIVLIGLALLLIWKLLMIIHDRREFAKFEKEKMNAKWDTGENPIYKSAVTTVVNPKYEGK

kikmviswkg ([dK][dI][dK][dM][dV][dI][dS][dW][dK]G) [HYD1]
binding to the cell surface [1]: bind to the cell surface | blocking of cell surface binding by β1 integrin antibody [1]: is blocked | protection from induced cell death by pan caspase inhibitor ZVAD-FMK ([2]; H929 cells, 200 μM ZVAD-FMK 30 minutes prior, apoptosis at 24 hours, annexin/PI): only marginally protected | annexin V positive cells following 6 hours of treatment ([2]; H929 cells, 6 hours): can be detected | induction of annexin V positive cells ([2]; H929 cells, suspension culture, single agent, 24 hours): dose dependent induction of annexin V positive cells | melphalan-induced apoptosis in cells cultured in suspension ([2]; H929 cells, suspension, peptide with melphalan): increased melphalan-induced apoptosis | sensitivity to HYD1 treatment, H929 compared to 8226 cells ([2]; suspension culture): H929 cells are more sensitive | resistance to melphalan associated with HS-5 co-culture ([3]; H929 cells): reduced resistance | potentiation of melphalan-induced apoptosis in the SF+A model ([3]; H929 cells co-cultured with HS-5, 50 μg/ml peptide, with melphalan): potentiates melphalan-induced apoptosis | resistance to melphalan associated with the bone marrow stroma model ([4]; 8226 cells): completely reversed resistance | potentiation of melphalan-induced apoptosis in the SF+A model ([4]; 8226 cells co-cultured with HS-5, 50 μg/ml peptide, with melphalan): potentiates melphalan-induced apoptosis
